Measured values: patent US20130079322A1, “CRYSTALLINE OF CARBAPENEM DERIVATIVE OR ITS HYDRATE, PREPARATION METHODS AND USES THEREOF” (priority 2010, published 2013)
Converted amounts (≈) assume the structure as drawn.

Tests used:
[1] = Stability assay at a high temperature of 60° C. (HPLC content and related substances); type: physicochemical
Method: Condition for the assay: sampled after placing for 5 days, 10 days at a high temperature of 60° C., and the results thus obtained were compared with those obtained at day 0 by measuring related substances and contents thereof. The samples were sealed with plastic bags coated with aluminium foils during the assay. Amorphous compound A (refers to the amorphous for short hereinafter): self-prepared. Preparation method: see the preparation of amorphous compound A in the above preparative examples. The purity is 96.66%, and the batch number is 110901. The crystalline form I of compound A (refers to the crystalline form I for short hereinafter): prepared by example 1 of the Specification. The batch number is 20100315-4. Content determination is performed by external standard method using the sample at day 0 as control according to the high performance liquid chromatography in Chinese Pharmacopoeia, 2010 edition, appendix VD. Determination of related substances is performed by area normalization method according to the high performance liquid chromatography in Chinese Pharmacopoeia, 2010 edition, appendix VD. Mobile phase: A: 0.02 M diammonium phosphate (pH=5.2 adjusted by phosphoric acid):acetonitrile=95:5. • B: 0.02 M diammonium phosphate (pH=5.2 adjusted by phosphoric acid):acetonitrile=30:70. Gradient condition: see Table 1 The experimental results obtained: see Table 2

Moraxelle catarrhalis = test: Antibacterial activity, standard agar double dilution method; type: cell-based; conditions: clinically isolated strains
Excerpt: (§1) Test strains: the following clinically isolated strains were provided by public organizations.
(§2) Gram-negative bacteria: ESBLs negative Escherichia coli, ESBLs positive Escherichia coli, Haemophilus influenzae, and Moraxelle catarrhalis.
(§3) Test compound: the crystalline form I of compound A
(§4) Experimental method: standard agar double dilution method was adopted.

[2] = tested on: Gram-positive and Gram-negative bacteria; test: Antibacterial activity against clinically isolated strains (overall conclusion); type: cell-based; conditions: against both Gram-positive and Gram-negative bacteria
Excerpt: as §1
Gram-positive bacteria: methicillin sensitive Staphylococcus aureus (MSSA), and penicillin sensitive Streptococcus pneumoniae;
as §2, §3, §4

[3] = 60° C., day 5 compared with day 0
[4] = 60° C., day 10 compared with day 0

| Content % ([1]; 60° C., day 5, sample at day 0 as control) | Related substance % open ring % ([1]; 60° C., day 5, sealed) | Related substance % total % ([1]; 60° C., day 5, sealed) | Content decrease % [1, 3] | Related substance % increase open ring % [1, 3] | Related substance % increase total % [1, 3] | Related substance % open ring % ([1]; day 0) | Related substance % total % ([1]; day 0) | Stability as compared with the amorphous of compound A ([1]; 60° C., 5 and 10 days) | Content decrease % [1, 4] | Related substance % increase open ring % [1, 4] | Related substance % increase total % [1, 4] | MIC90 (Moraxelle catarrhalis) | SMILES | Antibacterial activity [2] |
| --- | --- | --- | --- | --- | --- | --- | --- | --- | --- | --- | --- | --- | --- | --- |
| 73.16% | 3.328% | 20.675% | 26.84% | 2.852% | 11.38% | 0.476% | 9.295% |  |  |  |  |  | C[C@@H](O)[C@H]1C(=O)N2C(C(=O)O)=C(S[C@@H]3CN[C@H](C(=O)NCc4ccc(S(N)(=O)=O)cc4)C3)[C@H](C)[C@H]12 [The amorphous] |  |
|  |  |  | 3.73% | 0.646% | 0.841% |  |  | more stable | 3.95% | 0.984% | 1.167% | 8 ng/mL (≈ 0.0152 µM) | C[C@@H](O)[C@H]1C(=O)N2C(C(=O)O)=C(S[C@@H]3CN[C@H](C(=O)NCc4ccc(S(N)(=O)=O)cc4)C3)[C@H](C)[C@H]12 [The crystalline form I] | excellent antibacterial activity |
